Reference: ChEMBL document CHEMBL4312025, “Synthesis, antiproliferative activity and DNA/RNA-binding properties of mono- and bis-(1,2,3-triazolyl)-appended benzimidazo[1,2-a]quinoline derivatives” (Eur J Med Chem, 2020)
Active and inactive are the calls of the source. No cut-off for these calls is given here.

How the values were obtained:
HCT-116 [1] = experiment: Growth inhibition of human HCT116 cells incubated for 72 hrs by MTT assay; type: functional; settings: HCT-116, 72 h
MCF7 = experiment: Growth inhibition of human MCF7 cells incubated for 72 hrs by MTT assay; type: functional; settings: MCF7, 72 h
NCI-H460 = experiment: Growth inhibition of human H460 cells incubated for 72 hrs by MTT assay; type: functional; settings: NCI-H460, 72 h
[2] = Growth inhibition of human HaCaT cells incubated for 72 hrs by MTT assay; type: cell-based
Calf thymus DNA [3] = experiment: Binding affinity to calf thymus dsDNA assessed as binding constant in sodium cacodylate buffer at pH 7 by fluorescence spectroscopy; type: nucleic-acid assay; settings: Bos taurus
Calf thymus DNA [4] = experiment: Binding affinity to calf thymus dsDNA assessed as ratio for bound compound to polynucleotide in sodium cacodylate buffer at pH 7 by fluorescence spectroscopy based Scatchard analysis; type: nucleic-acid assay; settings: Bos taurus
Calf thymus DNA [5] = experiment: Binding affinity to calf thymus dsDNA assessed as ratio for fluorescence intensity of compound to fluorescence intensity for compound-polynucleotide complex in sodium cacodylate buffer at pH 7 by fluorescence spectroscopy based Scatchard method; type: nucleic-acid assay; settings: Bos taurus
Calf thymus DNA [6] = experiment: Binding affinity to calf thymus dsDNA assessed as change in melting temperature in sodium cacodylate buffer at pH 7 at compound:polynucleotide concentration ratio of 0.2 by thermal denaturation assay; type: nucleic-acid assay; settings: Bos taurus
[7] = system: Poly(dA-dU)oligonucleotide; experiment: Binding affinity to polyA-polyU dsRNA (unknown origin) assessed as change in melting temperature in sodium cacodylate buffer at pH 7 at compound:polynucleotide concentration ratio of 0.2 by thermal denaturation assay; type: nucleic-acid assay
[8] = Drug uptake in cytoplasm of human H460 cells assessed as perinuclear reticular staining at 1 uM incubated for 15 mins by fluorescence microscopy; type: ADME, cell-based; settings: nci-h460, 0.25 h
[9] = Drug uptake in nucleus of human H460 cells at 1 uM incubated for 15 mins by fluorescence microscopy; type: ADME, cell-based; settings: nci-h460, 0.25 h
[10] = Solubility of the compound in 0.05 M sodium cacodylate buffer with <0.01% DMSO upto 1X10'-5 mol/dm3 by UV/Visible spectra analysis; type: physicochemical
Calf thymus DNA [11] = experiment: Binding affinity to calf thymus ds-DNA assessed as decrease in emission intensity of the compound in sodium cacodylate buffer at pH 7 at 1X10'-6 mol/dm3 by fluorescence spectroscopy; type: nucleic-acid assay; settings: Bos taurus
[12] = system: Poly(dA-dU)oligonucleotide; experiment: Binding affinity to polyA-polyU dsRNA (unknown origin) assessed as decrease in emission intensity of the compound in sodium cacodylate buffer at pH 7 at 1X10'-6 mol/dm3 by fluorescence spectroscopy; type: nucleic-acid assay
Calf thymus DNA [13] = experiment: Binding affinity to calf thymus dsDNA assessed as stabilization of mixed DNA base pairs in sodium cacodylate buffer at pH 7 at compound:polynucleotide concentration ratio of 0.2 by thermal denaturation assay; type: nucleic-acid assay; settings: Bos taurus
Calf thymus DNA [14] = experiment: Binding affinity to calf thymus dsDNA assessed as intercalating activity by measuring weak negative ICD band between 300 and 330 nm in sodium cacodylate buffer at pH 7 at compound:polynucleotide concentration ratio of 0.1 to 0.3 by CD spectroscopy; type: nucleic-acid assay; settings: Bos taurus
[15] = system: Poly(dA-dU)oligonucleotide; experiment: Binding affinity to polyA-polyU dsRNA (unknown origin) assessed as intercalating activity by measuring decrease in CD spectra of polynucleotides in sodium cacodylate buffer at pH 7 at compound:polynucleotide concentration ratio of 0.1 to 0.4 by CD spectroscopy; type: nucleic-acid assay
Calf thymus DNA [16] = experiment: Binding affinity to calf thymus dsDNA assessed as intercalating activity by measuring decrease in CD spectra of polynucleotides in sodium cacodylate buffer at pH 7 at compound:polynucleotide concentration ratio of 0.1 to 0.3 by CD spectroscopy; type: nucleic-acid assay; settings: Bos taurus
[17] = Drug uptake in cytoplasm of human H460 cells assessed as perinuclear reticular staining at 10 uM incubated for 15 mins by fluorescence microscopy; type: ADME, cell-based; settings: nci-h460, 0.25 h
[18] = system: Poly(dA-dU)oligonucleotide; experiment: Binding affinity to polyA-polyU dsRNA (unknown origin) assessed as biphasic thermal denaturation transitions in sodium cacodylate buffer at pH 7 at compound:polynucleotide concentration ratio of 0.2 by thermal denaturation assay; type: nucleic-acid assay
[19] = system: Poly(dA-dU)oligonucleotide; experiment: Binding affinity to polyA-polyU dsRNA (unknown origin) assessed as binding constant in sodium cacodylate buffer at pH 7 by fluorescence spectroscopy; type: nucleic-acid assay
[20] = system: Poly(dA-dU)oligonucleotide; experiment: Binding affinity to polyA-polyU dsRNA (unknown origin) assessed as ratio for bound compound to polynucleotide in sodium cacodylate buffer at pH 7 by fluorescence spectroscopy based Scatchard method; type: nucleic-acid assay
[21] = system: Poly(dA-dU)oligonucleotide; experiment: Binding affinity to polyA-polyU dsRNA (unknown origin) assessed as ratio for fluorescence intensity of compound to fluorescence intensity for compound-polynucleotide complex in sodium cacodylate buffer at pH 7 by fluorescence spectroscopy based Scatchard method; type: nucleic-acid assay
[22] = Drug uptake in nucleus of human H460 cells at 10 uM incubated for 15 mins by fluorescence microscopy; type: ADME, cell-based; settings: nci-h460, 0.25 h
[23] = system: Poly(dA-dU)oligonucleotide; experiment: Binding affinity to polyA-polyU dsRNA (unknown origin) assessed as biphasic thermal denaturation transitions in sodium cacodylate buffer at pH 7 at compound:polynucleotide concentration ratio of 0.1 by thermal denaturation assay; type: nucleic-acid assay
[24] = system: Poly(dA-dU)oligonucleotide; experiment: Binding affinity to polyA-polyU dsRNA (unknown origin) assessed as stabilization of polynucleotide in sodium cacodylate buffer at pH 7 at compound:polynucleotide concentration ratio of 0.1 to 0.2 by thermal denaturation assay; type: nucleic-acid assay
HCT-116 [25] = experiment: Cell cycle arrest in human HCT116 cells at 0.5 to 1 uM incubated for 24 and 48 hrs by propidium iodide staining based flow cytometry; type: functional
HCT-116 [26] = experiment: Cytotoxicity against human HCT116 cells assessed as induction of massive cell death at 5 uM incubated for 24 to 48 hrs; type: functional, cell-based

Row | Compound | GI50 (HCT-116 [1]) | GI50 (MCF7) | GI50 (NCI-H460) | GI50 at 72 h [2] | also measured
1 | N#Cc1c(-n2cc(CNS(=O)(=O)c3ccc(F)cc3)nn2)c2ccccc2n2c1nc1ccccc12 | 3.5 µM | 4.2 µM | 13 µM | 2.9 µM | –
2 | CCCCCc1ccc(-c2cn(-c3c(C#N)c4nc5ccccc5n4c4ccccc34)nn2)cc1 | 34 µM | 35 µM | 32 µM | – | –
3 | CCCCCCCCCCc1cn(-c2ccc3c(-n4cc(CCCCCCCCCC)nn4)c(C#N)c4nc5ccccc5n4c3c2)nn1 | 16 µM | 15 µM | 17 µM | – | –
4 | N#Cc1c(-n2cc(CCCCl)nn2)c2ccc(-n3cc(CCCCl)nn3)cc2n2c1nc1ccccc12 | 2.5 µM | 6.9 µM | 3 µM | 3.2 µM | log Ks (Calf thymus DNA [3]): 5.4; Ratio (Calf thymus DNA [4]): 0.1; Ratio (Calf thymus DNA [5]): 0.8; ΔTm (Calf thymus DNA [6]): 1.5 °C; ΔTm [7]: 0 °C; Drug uptake [8]: Active; Drug uptake [9]: Not Active; solubility [10]: Soluble; Activity (Calf thymus DNA [11]): Active; Activity [12]: Active; Activity (Calf thymus DNA [13]): Active; Activity (Calf thymus DNA [14]): Active; Activity [15]: Active; Activity (Calf thymus DNA [16]): Active
5 | N#Cc1c(-n2cc(CCCCl)nn2)c2ccccc2n2c1nc1ccccc12 | 1 µM | 1.5 µM | 2 µM | 1 µM | Drug uptake [17]: Active; ΔTm [18]: 0.4 to 25.3 °C; log Ks (Calf thymus DNA [3]): 6.1; Ratio (Calf thymus DNA [4]): 0.4; Ratio (Calf thymus DNA [5]): 0.3; log Ks [19]: 6; Ratio [20]: 0.3; Ratio [21]: 0.2; ΔTm (Calf thymus DNA [6]): 1.2 °C; Drug uptake [22]: Not Active; solubility [10]: Soluble; Activity (Calf thymus DNA [11]): Active; Activity [12]: Active; ΔTm [23]: 0.2 to 17 °C; Activity (Calf thymus DNA [13]): Active; Activity [24]: Active; Activity (Calf thymus DNA [14]): Active; Activity [15]: Active; Activity (Calf thymus DNA [16]): Active
6 | N#Cc1c(-n2cc(-c3cc(C(F)(F)F)cc(C(F)(F)F)c3)nn2)c2ccc(F)cc2n2c1nc1ccccc12 | 2 µM | 4.5 µM | 2 µM | 2.1 µM | –
7 | CCCCCc1ccc(-c2cn(-c3ccc4c(-n5cc(-c6ccc(CCCCC)cc6)nn5)c(C#N)c5nc6ccccc6n5c4c3)nn2)cc1 | 8 µM | 18 µM | 16 µM | – | –
8 | N#Cc1c(-n2cc(CCO)nn2)c2ccccc2n2c1nc1ccccc12 | 3.5 µM | 4.2 µM | 13 µM | 3.3 µM | –
9 | N#Cc1c(-n2cc(C3CC3)nn2)c2ccc(-n3cc(C4CC4)nn3)cc2n2c1nc1ccccc12 | 1.6 µM | 3 µM | 3 µM | 3.24 µM | –
10 | N#Cc1c(-n2cc(-c3cc(C(F)(F)F)cc(C(F)(F)F)c3)nn2)c2ccccc2n2c1nc1ccccc12 | 1 µM | 4 µM | 1 µM | 2.2 µM | –
11 | N#Cc1c(-n2cc(CCO)nn2)c2ccc(-n3cc(CCO)nn3)cc2n2c1nc1ccccc12 | 59 µM | 35 µM | ≥ 100 µM | – | –
12 | N#Cc1c(-n2cc(CNS(=O)(=O)c3ccc(F)cc3)nn2)c2ccc(F)cc2n2c1nc1ccccc12 | 2 µM | 3.9 µM | 3.4 µM | 2.9 µM | –
13 | N#Cc1c(-n2cc(-c3ccc(Br)cc3)nn2)c2ccccc2n2c1nc1ccccc12 | 25 µM | 31 µM | 59.5 µM | – | –
14 | N#Cc1c(-n2cc(C3CC3)nn2)c2ccccc2n2c1nc1ccccc12 | 10 µM | 3 µM | 52 µM | – | –
15 | COc1cc([C@@H]2c3cc4c(cc3[C@@H](O[C@@H]3O[C@@H]5CO[C@@H](C)O[C@H]5[C@H](O)[C@H]3O)[C@H]3COC(=O)[C@H]23)OCO4)cc(OC)c1O [ETOPOSIDE] | 5 µM | 1 µM | 0.1 µM | – | –
16 | CCCCCCCCCCc1cn(-c2c(C#N)c3nc4ccccc4n3c3cc(F)ccc23)nn1 | 3 µM | 5 µM | 7 µM | 3.5 µM | –
17 | N#Cc1c(-n2cc(CCO)nn2)c2ccc(F)cc2n2c1nc1ccccc12 | 0.6 µM | 2 µM | 1 µM | 0.73 µM | log Ks (Calf thymus DNA [3]): 5; Ratio (Calf thymus DNA [4]): 0.08; Ratio (Calf thymus DNA [5]): 0.5; ΔTm (Calf thymus DNA [6]): 1.3 °C; ΔTm [7]: 0 °C; Activity (HCT-116 [25]): Active; Drug uptake [8]: Active; Drug uptake [9]: Not Active; solubility [10]: Soluble; Activity (Calf thymus DNA [11]): Active; Activity [12]: Active; Activity (Calf thymus DNA [13]): Active; Activity (HCT-116 [26]): Active; Activity (Calf thymus DNA [14]): Active; Activity [15]: Active; Activity (Calf thymus DNA [16]): Active
18 | CCCCCCCCCCc1cn(-c2c(C#N)c3nc4ccccc4n3c3ccccc23)nn1 | 35 µM | 28.5 µM | 62 µM | – | –
19 | CCCCCc1ccc(-c2cn(-c3c(C#N)c4nc5ccccc5n4c4cc(F)ccc34)nn2)cc1 | 7 µM | 24 µM | 32 µM | – | –
